In patent publication US20110052776A1, “CHOCOLATE COMPOSITIONS HAVING IMPROVED FLAVOUR CHARACTERISTICS” (priority 2007, published 2011):

Assays:
expert panel members [1] = test: SEV of non-sucrose sweetener solutions (SEV about 5%) after addition of potentiators; type: in vivo; settings: 500 ppm 3-HB alone versus with 500 ppm 2,4-DHB; pH 3.2
Experimental: (§1) One method of measuring the perceived sweetness of a solution is to match it with a stock sucrose solution of known concentration. In the present experiments, the compound of interest is added at a predetermined concentration to a pH 3.2 buffered solution containing 5% sucrose. A number of expert panel members then taste the solution and compare it to a battery of stock sucrose solutions ranging from 3% to 15% at increments of 1%. Each panel member decides which sucrose solution is equisweet with the solution containing the compound of interest. The mean value is then reported as the SEV. Results are reported to 1 decimal place.
The SEV of each sweetener solution was then evaluated after the addition 500 ppm of 3-HB, the addition of 500 ppm of 2,4-DHB and the addition of both 500 ppm 3-HB and 2,4-DHB.

panel member = test: Sucrose reduction method versus 10% sucrose control, taste panel; type: in vivo; settings: 1000 ppm used individually; control pH 3.2 10% sucrose
Experimental: An alternative method of measuring perceived sweetness is to determine how much sucrose can be replaced through the use of the compound of interest without any Perceived loss of sweetness. In the present experiments the control was a pH 3.2 buffered solution containing 10% sucrose. The compound of interest is added at a predetermined concentration to a number of sucrose solutions containing from 5% to 10% sucrose at increments of 0.5%. Each panel member tastes each of the solutions, compares it to the control sample and decides which solutions are equisweet. For example, if the 8% sucrose solution containing the compound of interest is equisweet with the control, then the sucrose reduction achieved by the compound of interest is 20%.
A series of sucrose solutions were prepared containing 3-HB and 2,4-DHB at a combined concentration of 1000 ppm. Each solution was evaluated using the sucrose reduction method described above to determine how much sucrose could be replaced without noticeable loss of sweetness.
A series of sucrose solutions were prepared containing equal quantities of 3-HB and 2,4-DHB, at a combined concentration of 200, 400, 600, 800 and 1000 ppm. Each solution was evaluated using the sucrose reduction method described in Example 8 above to determine how much sucrose could be replaced without noticeable loss of sweetness.

expert panel members [2] = test: Sucrose Equivalent Value (SEV) of pH 3.2 buffered sucrose solution, taste panel; type: in vivo; settings: for SEV (%): 500 ppm of one potentiator in pH 3.2 buffered 5% sucrose solution; for maximum sweetness attainable (SEV): pH 3.2 buffered 5% sucrose solution, dose response curve 0 to 1000 ppm; for effect on SEV of sucrose solutions, forms of 2,4-DHB: 500 ppm, pH 3.2 buffered solutions with 0%, 3%, 5%, 7% and 9% sucrose; for SEV of solution containing 500 ppm 2,4-DHB and 500 ppm of a second sweetener potentiator: label = second potentiator, 5% sucrose solution
Experimental: as §1
In accordance with this methodology, 3-HB was added to a pH 3.2 buffered solution containing 5% sucrose to produce solutions containing from 0 to 1000 ppm 3-HB in 100 ppm increments. […] From FIG. 1 it is apparent that as the dosage of 3-HB increases so does the sweetness of the resultant solution. However the effect is non-linear with each incremental addition having a diminishing effect. The maximum sweetness attainable would appear to be about 7.9% SEV (based on a 5% sucrose solution).
The same methodology as described in Example 6 was repeated with 2,4-DHB in place of 3-HB, to produce the dose response curve for 2,4-DHB (FIG. 2). […] The maximum attainable sweetness would appear to be about 6.7% SEV (based on a 5% sucrose solution).
500 ppm of a sweetener potentiator was added to a pH 3.2 buffered solution containing 5% sucrose and the SEV of the resultant solution determined.
500 ppm of the sweetener potentiator then was added to a 5% sucrose solution containing 500 ppm 3-HB to produce a series of solutions. […] The use of 500 ppm of 3-HB alone results in an SEV of 6.9% whereas in all cases but two (2,4-DHB and 3,4-DHB) the addition of a second sweetener potentiator results in a little change or even a decrease in SEV. This is highly surprising considering that all of the potentiators are shown to have SEVs greater than 5%.
The methodology was repeated to produce a series of solutions containing 500 ppm 2,4-DHB and 500 ppm of a second sweetener potentiator.
500 ppm of 3-HB, 500 ppm of 2,4-DHB and 500 ppm of 3,4-dihydroxybenzoic acid (3,4-DHB) were added to a pH 3.2 buffered solution containing 5% sucrose and the SEV determined. The results are shown in FIG. 7 together with other combinations of 3-HB, 2,4-DHB and 3,4-DHB for comparison. The solution containing the combination of 3-HB and 2,4-DHB (hatched) has a much higher SEV (8.7%) than the combination of either 3,4-DHB and 3-HB (7.6%) or the combination of 3,4-DHB and 2,4-DHB (6.8%). The three-way combination of the embodiment (hatched) is better still with an SEV of 9.8%.
Buffered solutions of pH 3.2 were prepared containing 0%, 3%, 5%, 7% and 9% sucrose. 500 ppm of 2,4-DHB acid, 500 ppm of the sodium salt of 2,4-DHB and 500 ppm of the potassium salt of 2,4-DHB were added individually to each of the sucrose solutions. The SEV for each of the solutions was then determined.
500 ppm of 3-aminobenzoic acid and 500 ppm of 4-aminobenzoic acid were individually added to separate pH 3.2 buffered solutions containing 5% sucrose and the SEVs of the resultant solutions were determined. The SEV of 3-aminobenzoic acid was about 7%, i.e., increased the sweetness intensity of 5% sucrose to about 7%. The SEV of 4-aminobenzoic acid was about 5.5-6%, i.e., increased the sweetness intensity of 5% sucrose to about 5.5-6%.

[3] = cited from earlier work

O=C(O)c1cccc(O)c1 [Example 3-HB, 3-hydroxybenzoic acid]
effect on sweetness of saccharin solution (expert panel members [1]): enhances the sweetness to a greater degree alone than in combination with 2,4-DHB | sucrose reduction (panel member): 25% | SEV (%) (expert panel members [2]): 6.9% | maximum sweetness attainable (SEV) (expert panel members [2]): about 7.9 % SEV

O=C(O)c1c(O)cc(O)cc1O [2,4,6-trihydroxybenzoic acid (2,4,6-THB), 2,4,6-trihydroxybenzoic acid]
SEV (%) (expert panel members [2]): 5.4%

O=C([O-])c1ccc(O)cc1O.[K+] [potassium salt of 2,4-DHB]
effect on SEV of sucrose solutions, forms of 2,4-DHB (expert panel members [2]): enhances the sweetness of the sucrose solution in every case

O=C(O)c1cc(O)ccc1O [2,5-dihydroxybenzoic acid (2,5-DHB), 2,5-dihydroxybenzoic acid]
SEV (%) (expert panel members [2]): 5.3%

O=C(O)c1ccc(O)c(O)c1 [3,4-dihydroxybenzoic acid (3,4-DHB), 3,4-dihydroxybenzoic acid]
SEV (%) (expert panel members [2]): 6.4%

O=C(O)c1ccc(O)cc1O [2,4-DHB, 2,4-dihydroxybenzoic acid]
sucrose reduction (panel member): 15% | SEV (expert panel members [2]; 400 ppm in pH 3.2 buffered 5% sucrose solution): 6.5% | SEV (%) (expert panel members [2]): 6.5% | effect on SEV of sucrose solutions, forms of 2,4-DHB (expert panel members [2]): enhances the sweetness of the sucrose solution in every case | SEV (expert panel members [2]; 1000 ppm in pH 3.2 buffered 5% sucrose solution): 6.7% | maximum sweetness attainable (SEV) (expert panel members [2]): about 6.7 % SEV | effect on the sweetness intensity of both sucralose and aspartame ([3]; FIGS. 1 and 2 and Tables 1 and 2 of U.S. Pat. No. 6,461,658): slightly inhibitory effect | length of time during which sucralose sweetness is perceived ([3]; U.S. Pat. No. 6,461,658): significantly reducing | effect on sweetness of a 5% sucrose solution ([3]; addition of 0.2% 2,4-DHB, Canadian Patent No. 1208966): increase in sweetness

O=C(O)c1c(O)cccc1O [2,6-dihydroxybenzoic acid (2,6-DHB), 2,6-dihydroxybenzoic acid]
SEV (%) (expert panel members [2]): 5.3%

O=C(O)c1ccc(O)c(O)c1O [2,3,4-trihydroxybenzoic acid (2,3,4-THB), 2,3,4-trihydroxybenzoic acid]
SEV (%) (expert panel members [2]): 5.4%

O=C(O)c1cccc(O)c1O [2,3-dihydroxybenzoic acid (2,3-DHB), 2,3-dihydroxybenzoic acid]
SEV (%) (expert panel members [2]): 6.3%

O=C(O)c1ccccc1O [2-hydroxybenzoic acid (2-HB), 2-hydroxybenzoic acid]
SEV (%) (expert panel members [2]): 5.6% | SEV of solution containing 500 ppm 2,4-DHB and 500 ppm of a second sweetener potentiator (expert panel members [2]): 6.3%

O=C(O)c1cc(O)c(O)c(O)c1 [3,4,5-tryhydroxybenzoic acid (3,4,5-THB), 3,4,5-tryhydroxybenzoic acid]
SEV (%) (expert panel members [2]): 5.1%

O=C([O-])c1ccc(O)cc1O.[Na+] [sodium salt of 2,4-DHB]
effect on SEV of sucrose solutions, forms of 2,4-DHB (expert panel members [2]): enhances the sweetness of the sucrose solution in every case

Nc1ccc(C(=O)O)cc1 [4-aminobenzoic acid]
SEV (%) (expert panel members [2]): 5.5-6%

Nc1cccc(C(=O)O)c1 [3-aminobenzoic acid]
SEV (%) (expert panel members [2]): about 7%

O=C(O)c1ccc(O)cc1 [4-hydroxybenzoic acid (4-HB), 4-hydroxybenzoic acid]
SEV (%) (expert panel members [2]): 5.2% | SEV of solution containing 500 ppm 2,4-DHB and 500 ppm of a second sweetener potentiator (expert panel members [2]): 6.2%

O=C(O)c1cc(O)cc(O)c1 [3,5-dihydroxybenzoic acid (3,5-DHB), 3,5-dihydroxybenzoic acid]
SEV (%) (expert panel members [2]): 5.3%
